# Results reported in patent publication US20030130484A1, “Inhibitors and disassemblers of fibrillogenesis” (priority 2001, published 2003).
# Assays:
# [1] = Circular dichroism under denaturing conditions (urea, pH, GuHCl, temperature); type: physicochemical; details: pH 2.5-10.5, 8M GuHCl, 20° and 70° C.
# Protocol: (§1) A 1 mm or 0.1 mm pathlength cell was used for measurements, depending on the concentration of the solution. Six to eight scans were acquired from 250 nm to 200 nm. For the pH experiment, a 100 mM phosphate-citrate buffer was used for pH 2.5-6.5, a 100 mM phosphate buffer was used for pH 7.5-8.5 and a 100 mM glycine-NaOH buffer was used for pH 9.5-10.5.
# as §1, with “The circular dichroic (CD) spectra were recorded using a Jasco P715 spectropolarimeter. […] A” for “A”, “9.5-10.5. For the urea denaturation experiment, Ad 16-20m was dissolved in 100 mM phosphate buffer pH 7.4 with 0-8.5 M urea.” for “9.5-10.5.”
# [2] = molecular target: Aβ40 fibrils (Homo sapiens, UniProt P05067)
# [3] = Calcein leakage assay; type: in vitro ADME; parameters: calcein escaped from the vesicles: dose or concentration left out as unconfirmed
# Protocol: The leakage of vesicle contents was monitored by measuring the release of calcein (Terzi et al., 1995 and Pillot et al, 1996). Vesicles were prepared and separated from free calcein as described above for the radioactive compounds, except that the rehydration buffer contained […] calcein and 10 mM Na-EDTA. In the kinetic assay, peptide was added to the vesicle solution and the fluorescence was measured at ten minute intervals with excitation and emission wavelengths of 490 and 520 nm, respectively. Data were fit to an equation for a first order rate process. For the concentration dependence assay, different amounts of peptide were added to the vesicle solution and the fluorescence was measured after a two hour incubation at 37° C. The maximum leakage was determined by lysing the vesicles with the addition of 0.5% (w/v) Triton X-100.
# The leakage of vesicle contents was monitored by measuring the release of calcein (Terzi et al., 1995; Pillot et al., 1996). Vesicles were prepared and separated from free calcein as described herein for the radioactive compounds, except that the rehydration buffer contained 40 mM calcein and 1 mM Na-EDTA. […] The maximum fluorescence was measured by lysing the vesicles with the addition of 0.1% (w/v) Triton X-100.
# [4] = molecular target: PrP106-126 (Homo sapiens, UniProt P04156); type: biochemical
# [5] = Solubility in aqueous media and organic solvents
# [6] = molecular target: Aβ40 (Homo sapiens, UniProt P05067); experiment: Inhibition of Aβ40 fibrillogenesis, thioflavin T fluorescence assay; type: biochemical
# Sequence of Aβ40 (P05067 672-711): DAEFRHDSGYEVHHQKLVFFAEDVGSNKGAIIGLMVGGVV
# Sequence of Aβ40 fibrils (P05067 672-711): as above
# Sequence of PrP106-126 (P04156 106-126 limits assumed): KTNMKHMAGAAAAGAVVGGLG
smiles,measurement,setting,value
"CC(=O)N[C@@H](CCCCN)C(=O)N(C)[C@@H](CC(C)C)C(=O)N[C@H](C(=O)N(C)[C@@H](Cc1ccccc1)C(=O)N[C@@H](Cc1ccccc1)C(N)=O)C(C)C [Aβ16-20m, Ac—NH—K(me-L)V(me-F)F—CONH2]",stability of peptide structure by CD (mean residue ellipticity at 226 nm),[1],extremely stable and resistant to chemical denaturation
same,half-life,[2],24 ± 7 min
same,leakage of calcein from vesicles (in words),[3],causes the leakage of calcein
same,calcein escaped from the vesicles,[3]; highest concentration tested,82%
same,calcein efflux,[3]; low micromolar concentrations of peptide,less than 10%
same,inhibition of fibril formation by PrP106-126,[4],ineffective
same,solubility,[5],≥ 30 mM
same,solubility in aqueous media (in words),[5],highly soluble in aqueous media
same,solubility in organic solvents (in words),"[5]; DMF, diethyl ether, methylene chloride, chloroform",highly soluble
same,effect on Aβ40 fibril formation (in words),[6],highly effective inhibitor
